Several values for one entry are separate records, joined by “and”; a condition that tells them apart may be missing. Equal entries are not always repeated.
Tests used:
articular cartilage = test: Rabbit articular cartilage slices, stress-strain analysis and histology; details: 3 minutes exposure; for High Modulus Region Pa) / Low Region Modulus (Pa): 5 mg/ml in 0.02M disodium phosphate; for histological examination, control vs treated articular cartilage: 5 mg/ml
Method: Articular cartilage was dissected from both femoral and tibial chondyles of sacrificed rabbits. Cartilage slices were stored in sterile physiological saline. Eight slices of similar size (about 2 mm×2 mm) were placed in individual Eppendorf tubes. Physiological saline was replaced with 0.02M disodium phosphate at pH 8.5. […] Three specimens were treated with 0.02M disodium phosphate containing 5 mg/ml glutaric anhydride (95%). The remaining three specimens were treated with 0.02M disodium phosphate containing 5 mg/ml of acetic anhydride. Samples were exposed to control solution or acylation chemical for 3 minutes and then washed three times with sterile phosphate buffered saline (0.04M) at pH 7.2.

[1] = system: reconstituted, lyophilized human dermis; test: Third series: reconstituted lyophilized human dermis exposed to acylation agent
Text: In a third series of experiments, reconstituted, lyophilized human dermis samples were exposed to the acylation agents (glutaric anhydride). Again, dermal thickness increased from about 1 mm to 2 mm due to increased water binding. In addition, dermal pliability was increased as evidenced by the decreased relaxation time. It is hypothesized that the reactive agent changes the net charge distribution on collagen fibrils reducing the intensity of intrafibrillar interactions and increasing pliability. Increased water binding and pliability are characteristics associated with young skin.

cat cornea = test: In vivo cat model, corneal power by topographical mapping and optical examinations
Method: Two cats were treated with the active agent, glutaric anhydride. Treatment was applied to the right eye (OD) while the contra lateral eye (OS) served as a control. Buffer solution (0.02M disodium phosphate solution at pH 9.0) was first applied to the corneal surface. This was immediately followed by application of a solution of glutaric anhydride in disodium phosphate into a peripheral ring of a corneal mold placed on the corneal surface. The mold provided a tight seal to prevent migration of the active agent to the central cornea. Two treatment applications were provided at Day 1 and Day 7. The dosage of the active agent was 50 mg/mL. Eyes were examined for another 7 days following the second treatment.

[2] = system: processed human skin (lyophilized dermis); test: Acylation of processed human skin (lyophilized dermis), mechanical properties; details: 1 minute treatment
Method: Processed human skin was obtained for treatment. The processed skin was comprised of lyophilized dermis. Four samples were tested, two 2 cm×4 cm specimens and two 2 cm×8 cm specimens. Two sets of specimens were treated with 50 mg/mL of glutaric anhydride (dose #1) and the other two sets with 100 mg/mL of glutaric anhydride (dose #2). The rejuvenation agents were prepared in dilute buffer solution. Prior to treatment with the active agent, skin specimens were pre-treated with buffer alone. Treatments were completed in 1 minute.

[3] = system: sclera tissue of bovine eyes; test: Softening of bovine sclera tissue, compression analysis; details: 100 mg/mL, 1 minute exposure
Method: Bovine eyes were procured from a local slaughterhouse and stored in Optisol solution. Whole eyes were removed from the preservation solution and the sclera dried using Kim wipes. A solution of 0.2M disodium phosphate, pH 9.5 was applied to the dried sclera tissue. The tissue was exposed to the disodium phosphate solution for 1 minute. The tissue was again dried using a Kim wipe and a solution containing 100 mg/mL of glutaric anhydride in […] was exposed to the anhydride solution for 1 minute and the tissue then thoroughly rinsed with sterile 0.02M phosphate buffer, pH 7.2. The exposed tissue was examined for tissue softening. […] Sclera tissue softening was also obvious by application of thumb pressure to treated and untreated areas of the sclera tissue. It is proposed that sclera softening using acylating agents may be used to expand sclera tissue, thereby permitting more space for the ciliary body to expand and contract the lens.

[4] = system: cornea of enucleated porcine eyes; test: Enucleated porcine eyes, corneal power by topographical mapping (Optikon 2000); details: for Post-treatment Power (D), corneal power by topographical mapping: 1 minute exposure
Text: Eyes were procured from a local slaughterhouse, positioned in a device to stabilize the eye and subjected to topographical evaluation using the Optikon 2000 system. The corneal surface was dried using sterile gauze and then wetted with drops of buffer solution. The wetted eyes were again dried and exposed again to the same solution. Then a peripheral ring around the circumference of the corneal surface, slightly away from the limbus and the central cornea, was carefully treated by adding drops of buffer containing the active agent, a 20 mg/ml solution of glutaric anhydride. The eyes were then reexamined topographically and photos taken. Following evaluation, the eyes were placed in OptiSol for storage pending additional evaluations. Three eyes were treated using this protocol. In two eyes the active agent at 20 mg/mL was applied to a ring around the corneal periphery. The exposure width was approximately 1 mm. In one eye the active agent at 20 mg/mL was applied to a 2 mm diameter area on the apex of the central cornea. The exposure time was 1 minute. All eyes were then washed with neutral pH phosphate buffer.

dermal tissue = test: Second experiment: stress-strain analysis of dermal tissue strips (Sample C vs Sample D, FIG. 5); parameters: species or system human; details: fresh 100 mg/mL anhydride solution
Method: FIG. 5 is a graph showing the stress-strain analysis of dermal tissue specimen C and dermal tissue specimen D after treating the specimens with the same acylating agent under different treatment conditions.
In a second experiment one strip (Sample C) of dermal tissue was exposed to a 100 mg/mL anhydride solution. A second strip (Sample D) was exposed to the same anhydride solution after about 2 minutes.

[5] = system: cornea of whole porcine (pig) eyes; test: Treatment of trephined enucleated porcine eyes, inspection of corneal curvature; details: 50 mg/mL in 0.2M disodium phosphate pH 9.0, 1 minute, 7 mm trephined ring
Method: Whole, fresh porcine (pig) eyes were obtained from a local abattoir and immediately placed in Optisol GS preservation solution. The whole eye was placed in a holder allowing the corneal surface to be exposed. A 7 mm trephine was used to cut through the epithelium and penetrate the superficial corneal tissue. The corneal surface was then flooded with 0.2M disodium phosphate solution, pH 9.0. After 1 minute, the surface of the cornea was dried using an absorbent wipe (Kim Wipe). The corneal surface was immediately treated with 0.2M disodium phosphate solution, pH 9.0, containing 50 mg/mL of glutaric anhydride. After 1 minute of exposure, the cornea was flushed with phosphate buffered saline, pH 7.2. The surface of the cornea was inspected and the corneal curvature examined and compared to untreated eyes. […] The application of glutaric anhydride to a trephined peripheral ring of a pig cornea produced obvious flattening of the central cornea. It is believed that this technique might provide a simple, non-surgical method for treating myopia by inducing swelling in defined ring on the corneal periphery, thereby causing flattening of the central cornea.

Compound: CC(=O)OC(C)=O [acetic anhydride]
- High Modulus Region Pa) (articular cartilage): 47.7 Pa
- Low Region Modulus (Pa) (articular cartilage): 16.6 Pa
- histological examination, control vs treated articular cartilage (articular cartilage): no differences

Compound: O=C1CCCC(=O)O1 [glutaric anhydride]
- dermal pliability [1]: increased
- relaxation time [1]: decreased
- dermal thickness after treatment ([1]; increased from about 1 mm): ~2 mm
- High Modulus Region Pa) (articular cartilage): 58.1 Pa
- Low Region Modulus (Pa) (articular cartilage): 26.7 Pa
- histological examination, control vs treated articular cartilage (articular cartilage): no differences
- optical examinations, including slit-lamp biomicroscopy and Shiotz tonometry, treated vs control eyes (cat cornea; 7 days following the second treatment, 50 mg/mL): no differences
- Average Post-treat (D), corneal power by topographical mapping (cat cornea; right eye (OD), 50 mg/mL in peripheral ring, two applications at Day 1 and Day 7): 38.88 D and 40.68 D
- Strain (%) ([2]; dose 50 mg/mL): 79%
- Stress (MPa) ([2]; dose 50 mg/mL): 2.5 MPa
- Thickness ([2]; dose 50 mg/mL): 1.77 mm
- Strain (%) ([2]; dose 100 mg/mL): 84%
- Stress (MPa) ([2]; dose 100 mg/mL): 2.7 MPa
- Thickness ([2]; dose 100 mg/mL): 2.55 mm
- sclera tissue softening by thumb pressure, treated vs untreated areas [3]: obvious
- low modulus by compression analysis ([3]; after 0.2M disodium phosphate pH 9.5): significant loss of low modulus
- Post-treatment Power (D), corneal power by topographical mapping ([4]; 20 mg/mL applied to 2 mm diameter area on apex of central cornea): 41.3 D
- Post-treatment Power (D), corneal power by topographical mapping ([4]; 20 mg/mL applied to about 1 mm wide ring around corneal periphery): 37.4 D and 40.9 D
- appearance of eyes by visual examination ([4]; after treatment, 20 mg/mL, 1 minute): appeared clear
- increase of refractive power ([4]; treatment of the central cornea, 20 mg/mL): about 0.7 diopters
- reduction of corneal power ([4]; treatment of the periphery of the cornea, 20 mg/mL): more than 2 diopters
- thickness of Sample C relative to Sample D (dermal tissue; vs Sample D (hydrolyzed solution)): significantly thicker
- elastic and viscous stress-strain curves (dermal tissue; vs Sample D (same solution after about 2 minutes, hydrolyzed)): shifted to higher percent strain
- central corneal surface compared to untreated eyes [5]: clearly depressed or flattened

— US20050106270A1, “Chemical treatment of in vivo tissue to alter charge and net charge density characteristics” (priority 2003, published 2005)
